Converted amounts (≈) assume the structure as drawn. Read-outs that look alike come from different tables or passages of the source.
What was measured:
[1] = test system: L1210; conditions: L1210 cell line; cited from earlier work
[2] = test system: P388 leukemia; conditions: cited from earlier work; for antitumor activity / toxicity in antitumoral study: P388 leukemia cell line in CDF1 mice
[3] = test system: KB cells; conditions: KB cell line; cited from earlier work
[4] = test system: MDA-MB-231; test: SRB colorimetric cytotoxicity assay, MDA-MB-231; format: cell-based; conditions: for LC50 (concentration killing 50% of cells) / GI50: Homo sapiens; for LC50 (concentration killing 50% of cells): MDA-MB-231, 72 h, read-out: LC50; for GI50 / TGI: MDA-MB-231, 72 hours treatment, SRB; for TGI: total cell growth inhibition
From the text: (§1) The aim of this assay is to evaluate the in vitro cytostatic (ability to delay or arrest tumor cell growth) or cytotoxic (ability to kill tumor cells) activity of the samples being tested.
(§2) A colorimetric assay, using sulforhodamine B (SRB) reaction has been adapted to provide a quantitative measurement of cell growth and viability (following the technique described by Skehan et al. J. Natl. Cancer Inst. 1990, 82, 1107-1112).
(§3) This form of assay employs SBS-standard 96-well cell culture microplates (Faircloth et al. Methods in Cell Science, 1988, 11(4), 201-205; Mosmann et al, Journal of Immunological Methods, 1983, 65(1-2), 55-63). All the cell lines used in this study were obtained from the American Type Culture Collection (ATCC) and derive from different types of human cancer.
(§4) Cells were maintained in Dulbecco's Modified Eagle Medium (DMEM) supplemented with 10% Fetal Bovine Serum (FBS), 2 mM L-glutamine, 100 U/mL penicillin and 100 U/mL streptomycin at 37° C., 5% CO2 and 98% humidity. For the experiments, cells were harvested from subconfluent cultures using trypsinization and resuspended in fresh medium before counting and plating.
(§5) Cells were seeded in 96 well microtiter plates, at 5×10^3-7.5×10^3 cells per well in aliquots of 150 μL, and allowed to attach to the plate surface for 18 hours (overnight) in drug free medium. After that, one control (untreated) plate of each cell line was fixed (as described below) and used for time zero reference value. Culture plates were then treated with test compounds (50 μL aliquots of 4× stock solutions in complete culture medium plus 4% DMSO) using ten serial dilutions (concentrations ranging from 10 to 0.00262 μg/mL) and triplicate cultures (1% final concentration of DMSO). After 72 hours treatment, the antitumor effect was measured by using the SRB methodology: Briefly, cells were washed twice with PBS, fixed for 15 min in 1% glutaraldehyde solution at room temperature, rinsed twice in PBS, and stained in 0.4% SRB solution for 30 min at room temperature. Cells were then rinsed several times with 1% acetic acid solution and air-dried at room temperature. SRB was then extracted in 10 mM trizma base solution and the absorbance measured in an automated spectrophotometric plate reader at 490 nm. Effects on cell growth and survival were estimated by applying the NCI algorithm (Boyd M R and Paull K D. Drug Dev. Res. 1995, 34, 91-104).
(§6) Using the mean±SD of triplicate cultures, a dose-response curve was automatically generated using nonlinear regression analysis. Three reference parameters were calculated (NCI algorithm) by automatic interpolation: GI50=compound concentration that produces 50% cell growth inhibition, as compared to control cultures; TGI=compound concentration that produces total cell growth inhibition (cytostatic effect), as compared to control cultures, and LC50=compound concentration that produces 50% net cell killing (cytotoxic effect).

[5] = test system: HT29; test: SRB colorimetric cytotoxicity assay, HT29; format: cell-based; conditions: for TGI / GI50: HT29, 72 hours treatment, SRB; for TGI: total cell growth inhibition; for CC50 / GI50: Homo sapiens; for CC50: HT-29, 72 h, read-out: LC50; for GI50: HT-29
From the text: as §1, §2, §3, §4, §5, §6

[6] = test system: A549; test: SRB colorimetric cytotoxicity assay, A549; format: cell-based; conditions: for TGI / GI50: A549, 72 hours treatment, SRB; for TGI: total cell growth inhibition; for CC50 / GI50: Homo sapiens; for CC50: A549, 72 h, read-out: LC50
From the text: as §1, §2, §3, §4, §5, §6

[7] = test system: HT29; conditions: cited from earlier work
[8] = test system: MDA-MB-231; conditions: cited from earlier work
[9] = test system: A549; conditions: cited from earlier work

COC1CC(C)OC(CCC(C)C(O)C(C)C2OC(=O)/C(C)=C/CC(O)CC3C=CCC(CC(OC)C(C)C(O)CC(O)C(C)C(C(C)C(O)C(C)CCC4CC(OC)CC(C)O4)OC(=O)/C(C)=C/CC(O)CC4C=CCC(CC(OC)C(C)C(O)CC(O)C2C)O4)O3)C1 (stereo not shown) [Misakinolide A]
IC50 (cytotoxicity) [1]: 0.035 µg/mL (≈ 0.0262 µM)
T/C ([2]; dose of 0.1 mg/kg (mouse) against P388 leukemia): 140%

Swinholide B
IC50 (cytotoxicity) [1]: 0.30 µg/mL
IC50 (cytotoxicity) [3]: 0.04 µg/mL

COCC1C/C(C)=C\C2OC(=O)C=C(C/C=C/C(O)CC(O)C(C)C(OC)CCC(C)C(OC)CC3CC(=CC(=O)O3)CC(=O)N/C=C\C=C\CC3CC(=O)OC(C/C(C)=C\C=C\C(OC)CC(=O)O1)C3)C2C (stereo not shown) [Nanomolide B]
LC50 (concentration killing 50% of cells) [4]: 108 nM
GI50 [4]: 94.9 nM
TGI [4]: 9.78E−08 Molar
TGI [5]: 9.29E−08 Molar
CC50 [5]: 97.8 nM
GI50 [5]: 88 nM
TGI [6]: 1.27E−07 Molar
CC50 [6]: 235 nM
GI50 [6]: 73.4 nM

COCC1C/C(C)=C\C2OC(=O)C=C(C/C=C/C(O)CC(O)C(C)C(OC)CCC(C)C(OC)CC3CC(=CC(=O)O3)CC(=O)N/C=C\C=C\CC(CC(=O)OC)CC(O)C/C(C)=C\C=C\C(OC)CC(=O)O1)C2C (stereo not shown) [Nanomolide A]
LC50 (concentration killing 50% of cells) [4]: 45.5 nM
GI50 [4]: 8.35 nM
TGI [4]: 1.71E−08 Molar
TGI [5]: 1.04E−08 Molar
CC50 [5]: 16.1 nM
GI50 [5]: 7.59 nM
TGI [6]: 1.52E−08 Molar
CC50 [6]: 23.7 nM
GI50 [6]: 10.4 nM

CO[C@H]1CC(CC[C@H](C)[C@H](O)[C@H](C)C2OC(=O)/C=C/C(C)=C/C[C@H](O)C[C@@H]3C=CC[C@@H](C[C@H](OC)[C@@H](C)[C@@H](O)C[C@@H](O)[C@H](C)[C@H](O)[C@@H](C)[C@H]([C@@H](C)CC[C@H]4C[C@H](OC)C[C@H](C)O4)OC(=O)/C=C/C(C)=C/C[C@H](O)C[C@@H]4C=CCC(C[C@H](OC)[C@@H](C)[C@@H](O)C[C@@H](O)[C@@H]2C)O4)O3)O[C@@H](C)C1 (stereo partly shown) [isoswinholide A]
IC50 (cytotoxicity) [1]: 1.35 µg/mL (≈ 0.971 µM)
IC50 (cytotoxicity) [3]: 1.1 µg/mL (≈ 0.791 µM)
antitumor activity [2]: did not show promising antitumor activity
toxicity in antitumoral study [2]: toxic

CO[C@H]1CC(CC[C@H](C)[C@H](O)[C@H](C)[C@H]2OC(=O)/C=C/C(C)=C/C[C@H](O)C[C@@H]3C=CC[C@@H](C[C@H](OC)[C@@H](C)[C@@H](O)C[C@@H](O)[C@H](C)[C@@H]([C@@H](C)[C@@H](O)[C@@H](C)CC[C@H]4C[C@H](OC)C[C@H](C)O4)OC(=O)/C=C/C(C)=C/C[C@H](O)C[C@@H]4C=CC[C@@H](C[C@H](OC)[C@@H](C)[C@@H](O)C[C@@H](O)[C@@H]2C)O4)O3)O[C@@H](C)C1 (stereo partly shown) [Swinholide A]
IC50 (cytotoxicity) [1]: 0.03 µg/mL (≈ 0.0216 µM)
IC50 (cytotoxicity) [3]: 0.04 µg/mL (≈ 0.0288 µM)
antitumor activity [2]: did not show promising antitumor activity
toxicity in antitumoral study [2]: toxic

COC1CC(C)OC(CCC(C)C(O)C(C)C2OC(=O)/C=C\C(C)=C\CC(O)CC3C=CCC(CC(OC)C(C)C(O)CC(O)C(C)C(C(C)C(O)C(C)CCC4CC(O)CC(C)O4)OC(=O)/C=C\C(C)=C\CC(O)CC4C=CCC(CC(OC)C(C)C(O)CC(O)C2C)O4)O3)C1 (stereo not shown) [Swinholide C]
IC50 (cytotoxicity) [1]: 0.14 µg/mL (≈ 0.102 µM)
IC50 (cytotoxicity) [3]: 0.05 µg/mL (≈ 0.0363 µM)

COCC1C/C(C)=C\C2OC(=O)C/C(=C\C=C\C(O)CC(O)C(C)C(OC)CCC(C)C(OC)CC3CC(=CC(=O)O3)CC(=O)N/C=C\C=C\CC(CC(=O)OC)CC(O)C/C(C)=C\C=C\C(OC)CC(=O)O1)C2C (stereo not shown) [Nanomolide C]
LC50 (concentration killing 50% of cells) [4]: 22.8 nM
GI50 [4]: 15.2 nM
TGI [4]: 1.90E−08 Molar
TGI [5]: 1.52E−08 Molar
CC50 [5]: 21.8 nM
GI50 [5]: 12.3 nM
TGI [6]: 2.47E−08 Molar
CC50 [6]: 49.3 nM
GI50 [6]: 14.2 nM

CO[C@H]1CC(CC[C@H](C)C2OC(=O)/C=C/C(C)=C/CC(O)C[C@@H]3C=CCC(C[C@H](OC)[C@@H](C)[C@@H](O)C[C@@H](O)[C@H](C)[C@H](O)[C@@H](C)[C@H]([C@@H](C)CC[C@H]4C[C@H](OC)C[C@H](C)O4)OC(=O)/C=C/C(C)=C/C[C@H](O)C[C@@H]4C=CCC(C[C@H](OC)[C@@H](C)[C@@H](O)C[C@@H](O)[C@H](C)[C@H](O)[C@H]2C)O4)O3)O[C@@H](C)C1 (single isomer, unassigned) [isomer 11]
antitumor activity [2]: did not show promising antitumor activity
toxicity in antitumoral study [2]: toxic

COC1CC(C)OC(CCC(C)C(O)C(C)C2OC(=O)/C=C/C(C)=C/CC(O)CC3C=CCC(CC(OC)C(C)C(O)CC(O)C(C)C(C(C)C(O)C(C)CCC4CC(OC)CC(C)O4)OC(=O)/C(C)=C/CC(O)CC4C=CCC(CC(OC)C(C)C(O)CC(O)C2C)O4)O3)C1 (stereo not shown) [compound a]
GI50 [7]: 338 nM
GI50 [8]: 808 nM
GI50 [9]: 228 nM

From patent US20110118343A1, “Antitumoral Macrolides” (Pharma Mar, S. A., priority 2008, published 2011)
